From article PMC7031696 (Cell chemical biology, 2019)

Tested on: 3D7-MR4 trophozoite parasite-infected RBCs
Assay: Metabolomic profiling (hydrophilic metabolite changes, UHPLC-MS)
Type: cell-based, Plasmodium falciparum

## CN(C)Cc1ccc(-c2cc3c(-c4ccc(CN(C)C)cc4)ccnc3[nH]2)cc1.O=C(O)C(F)(F)F [MMV022224]
10 × IC50^72h, 2.5 hr, trophozoites
  peptide levels (hemoglobin catabolism signature): increased levels of peptides
Metabolite 1_3-Bisphosphoglyceric acid, log2 fold change
  Log2(fold changes) 1_3-Bisphosphoglyceric acid: 0.0000
Metabolite 2-Hydroxy-2-methylbutanedioic acid, log2 fold change
  Log2(fold changes) 2-Hydroxy-2-methylbutanedioic acid: 0.1756
Metabolite 2-Isopropylmalic acid, log2 fold change
  Log2(fold changes) 2-Isopropylmalic acid: 0.0000
Metabolite 2-dehydro-D-gluconate, log2 fold change
  Log2(fold changes) 2-dehydro-D-gluconate: 0.3564
Metabolite 2-oxo-4-methylthiobutanoate, log2 fold change
  Log2(fold changes) 2-oxo-4-methylthiobutanoate: 0.0000
Metabolite 2_3-Diphosphoglyceric acid, log2 fold change
  Log2(fold changes) 2_3-Diphosphoglyceric acid: -0.1549
Metabolite 3-phosphoglycerate, log2 fold change
  Log2(fold changes) 3-phosphoglycerate: -0.0795
Metabolite 3-phosphoserine, log2 fold change
  Log2(fold changes) 3-phosphoserine: -0.1712
Metabolite 4-Pyridoxic acid, log2 fold change
  Log2(fold changes) 4-Pyridoxic acid: 0.0566
Metabolite 4-aminobutyrate, log2 fold change
  Log2(fold changes) 4-aminobutyrate: -0.2938
Metabolite 4-phosphopantetheine, log2 fold change
  Log2(fold changes) 4-phosphopantetheine: -0.5209
Metabolite 4-phosphopantothenate, log2 fold change
  Log2(fold changes) 4-phosphopantothenate: 0.0735
Metabolite 5-aminopentanoic acid, log2 fold change
  Log2(fold changes) 5-aminopentanoic acid: 0.0000
Metabolite 5-methyl-THF, log2 fold change
  Log2(fold changes) 5-methyl-THF: 0.0000
Metabolite 5-phosphoribosyl-1-pyrophosphate, log2 fold change
  Log2(fold changes) 5-phosphoribosyl-1-pyrophosphate: -0.7551
Metabolite 6-phospho-D-gluconate, log2 fold change
  Log2(fold changes) 6-phospho-D-gluconate: -0.0328
Metabolite ADP-D-glucose, log2 fold change
  Log2(fold changes) ADP-D-glucose: 0.0037
Metabolite Acetyl-glycine, log2 fold change
  Log2(fold changes) Acetyl-glycine: 0.0000
Metabolite Acetyllysine, log2 fold change
  Log2(fold changes) Acetyllysine: 0.0000
Metabolite Aminoadipic acid, log2 fold change
  Log2(fold changes) Aminoadipic acid: 0.0000
Metabolite CDP, log2 fold change
  Log2(fold changes) CDP: -0.4119
Metabolite CDP-choline, log2 fold change
  Log2(fold changes) CDP-choline: 0.2972
Metabolite CDP-ethanolamine, log2 fold change
  Log2(fold changes) CDP-ethanolamine: 0.0000
Metabolite CMP
  Log2(fold change) of CMP: 0.3976
Metabolite CTP
  Log2(fold change) of CTP: -0.2057
Metabolite Citraconic acid, log2 fold change
  Log2(fold changes) Citraconic acid: 0.0000
Metabolite D-glucarate
  Log2(fold change) of D-glucarate: 0.0159
Metabolite D-gluconate
  Log2(fold change) of D-gluconate: -0.4042
Metabolite D-glucosamine-1/6-phosphate
  Log2(fold change) of D-glucosamine-1/6-phosphate: 0.0000
Metabolite D-sedoheptulose-1/7-phosphate
  Log2(fold change) of D-sedoheptulose-1/7-phosphate: 0.3067
Metabolite DL-Pipecolic Acid
  Log2(fold change) of DL-Pipecolic Acid: 0.0000
Metabolite DLH
  Log2(fold change) of DLH: 0.8439
Metabolite DLS
  Log2(fold change) of DLS: 0.5887
Metabolite Decanoyl-CoA
  Log2(fold change) of Decanoyl-CoA: 0.0000
Metabolite EV
  Log2(fold change) of EV: 0.0000
Metabolite FAD
  Log2(fold change) of FAD: 0.8383
Metabolite FMN
  Log2(fold change) of FMN: 0.1361
Metabolite G3P/DHAP
  Log2(fold change) of G3P/DHAP: 0.0585
Metabolite GDP
  Log2(fold change) of GDP: -0.5545
Metabolite GMP
  Log2(fold change) GMP: -0.0052
Metabolite GTP
  Log2(fold change) GTP: -0.2843
Metabolite HVDD
  Log2(fold change) HVDD: 0.7226
Metabolite Hexose
  Log2(fold change) Hexose: 0.3496
Metabolite Hydroxyisocaproic acid
  Log2(fold change) Hydroxyisocaproic acid: 0.0000
Metabolite IDP
  Log2(fold change) IDP: 0.0000
Metabolite IMP
  Log2(fold change) IMP: 0.0372
Metabolite Inositol
  Log2(fold change) Inositol: 0.0000
Metabolite Isopentyl-PP
  Log2(fold change) Isopentyl-PP: 0.0000
Metabolite L-arginino-succinate
  Log2(fold change) L-arginino-succinate: -0.1932
Metabolite LD
  Log2(fold change) LD: 0.8668
Metabolite Myristoyl/tetradecanoyl-CoA
  Log2(fold change) Myristoyl/tetradecanoyl-CoA: 0.0000
Metabolite N-Acetyl-L-alanine
  Log2(fold change) N-Acetyl-L-alanine: -0.6716
Metabolite N-acetyl-L-ornithine
  Log2(fold change) N-acetyl-L-ornithine: 0.0000
Metabolite N-acetyl-glucosamine-1/6-phosphate
  Log2(fold change) N-acetyl-glucosamine-1/6-phosphate: -0.1039
Metabolite N-acetyl-glutamate
  Log2(fold change) N-acetyl-glutamate: -0.3449
Metabolite N-acetyl-glutamine
  Log2(fold change) N-acetyl-glutamine: -1.3853
Metabolite N-carbamoyl-L-aspartate
  Log2(fold change) N-carbamoyl-L-aspartate: -0.1955
Metabolite NAD+
  Log2(fold change) NAD+: -0.0358
Metabolite NADH
  Log2(fold change) NADH: 1.5825
Metabolite NADP+
  Log2(fold change) NADP+: 0.0717
Metabolite NADPH
  Log2(fold change) NADPH: 1.3580
Metabolite O-acetyl-L-serine
  Log2(fold change) O-acetyl-L-serine: 0.0000
Metabolite Octoluse 8/1P
  Log2(fold change) Octoluse 8/1P: 0.5111
Metabolite Octoluse Bisphosphate
  Log2(fold change) Octoluse Bisphosphate: -0.3203
Metabolite PD
  Log2(fold change) PD: -0.9637
Metabolite PE
  Log2(fold change) PE: 0.0520
Metabolite PEE
  Log2(fold change) PEE: 0.3860
Metabolite PEEK
  Log2(fold change) PEEK: 1.9585
Metabolite PVNF
  Log2(fold change) PVNF: 0.5887
Metabolite Pyroglutamic acid
  Log2(fold change) Pyroglutamic acid: -0.2368
Metabolite Pyrophosphate
  Log2(fold change) Pyrophosphate: 0.0000
Metabolite Ribose-5-phosphate
  Log2(fold change) Ribose-5-phosphate: -0.2008
Metabolite S-adenosyl-L-homocysteine
  Log2(fold change) S-adenosyl-L-homocysteine: 0.3352
Metabolite S-adenosyl-L-methioninamine
  Log2(fold change) S-adenosyl-L-methioninamine: 0.0000
Metabolite S-adenosyl-L-methionine
  Log2(fold change) S-adenosyl-L-methionine: 0.0000
Metabolite S-methyl-5'-thioadenosine
  Log2(fold change) S-methyl-5'-thioadenosine: 0.2721
Metabolite SD
  Log2(fold change) SD: -0.1612
Metabolite SDL
  Log2(fold change) SDL: 0.5371
Metabolite SID
  Log2(fold change) SID: 0.0000
Metabolite Sedoheptulose bisphosphate
  Log2(fold change) Sedoheptulose bisphosphate: 0.0035
Metabolite Thiamine pyrophosphate
  Log2(fold change) Thiamine pyrophosphate: -0.0731
Metabolite UDP-D-glucose, log2 fold change
  Log2(fold changes) UDP-D-glucose: 0.0091
Metabolite UDP-D-glucuronate, log2 fold change
  Log2(fold changes) UDP-D-glucuronate: -0.1151
Metabolite UDP-N-acetyl-glucosamine, log2 fold change
  Log2(fold changes) UDP-N-acetyl-glucosamine: -0.0367
Metabolite UDP, log2 fold change
  Log2(fold changes) UDP: -0.5308
Metabolite UMP, log2 fold change
  Log2(fold changes) UMP: 0.0364
Metabolite UTP, log2 fold change
  Log2(fold changes) UTP: -0.1207
Metabolite VD, log2 fold change
  Log2(fold changes) VD: 0.0000
Metabolite Xanthurenic acid, log2 fold change
  Log2(fold changes) Xanthurenic acid: 0.0000
Metabolite a-ketoglutarate, log2 fold change
  Log2(fold changes) a-ketoglutarate: -0.4532
Metabolite acetyl-CoA, log2 fold change
  Log2(fold changes) acetyl-CoA: -0.3299
Metabolite acetyl-aspartate, log2 fold change
  Log2(fold changes) acetyl-aspartate: -0.2105
Metabolite acetylphosphate, log2 fold change
  Log2(fold changes) acetylphosphate: 0.0000
Metabolite aconitate, log2 fold change
  Log2(fold changes) aconitate: -0.2855
Metabolite adenine, log2 fold change
  Log2(fold changes) adenine: 0.0812
Metabolite adenosine 5'-phosphosulfate, log2 fold change
  Log2(fold changes) adenosine 5'-phosphosulfate: 0.0000
